# Measured values: patent publication US9981940B2, “Aryl sulfide derivatives and aryl sulfoxide derivatives as acaricides and insecticides” (BAYER CROPSCIENCE AKTIENGESELLSCHAFT, priority 2013, dated 2018)
# Tests used:
# Tetranychus urticae = Tetranychus urticae spray test, OP-resistant (TETRUR); format: in vivo; details: application rate of 500 g/ha, after 6 days; for pest or weed control at 500 g/ha: Tetranychus urticae, 144 h, read-out: efficacy
# In short: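 Mortality as % efficacy (0% = no mites killed) read 6 days after spraying. Formulation: active ingredient in acetone/dimethylformamide plus emulsifier, diluted with emulsifier-containing water, applied to Phaseolus vulgaris leaf discs carrying every life stage of OP-resistant spider mites.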
# [1] = log P by HPLC (OECD Guideline 117), method [a] acidic range; format: physicochemical; details: for logP[a]: HPLC, method [a] acidic range; for chromatographic logP: reversed-phase C18 HPLC column, acidic range
# Description: (§1) The log P values were determined analogously to OECD Guideline 117 (EC Directive 92/69/EEC) by HPLC (high-performance liquid chromatography) using reversed-phase columns (C 18), by the following methods:
# [a] The LC-MS determination in the acidic range is effected at pH 2.7 with 0.1% aqueous formic acid and acetonitrile (contains 0.1% formic acid) as eluents; linear gradient from 10% acetonitrile to 95% acetonitrile.
# [2] = log P by HPLC (OECD Guideline 117), method [b] neutral range; format: physicochemical; details: HPLC; for logP[b]: method [b] neutral range; for chromatographic logP: reversed-phase C18 HPLC column, neutral range, pH 7.8
# Description: as §1
# [b] The LC-MS determination in the neutral range is effected at pH 7.8 with 0.001 molar aqueous ammonium hydrogencarbonate solution and acetonitrile as eluents; linear gradient from 10% acetonitrile to 95% acetonitrile.
# Phaedon cochleariae = Phaedon cochleariae spray test (PHAECO); format: in vivo; details: application rate of 500 g/ha, after 7 days; for pest or weed control at 500 g/ha: Phaedon cochleariae, 168 h, read-out: efficacy
# Description: Phaedon cochleariae—Spray Test (PHAECO)
# • Solvent: 78.0 parts by weight of acetone • 1.5 parts by weight of dimethylformamide • Emulsifier: 0.5 part by weight of alkylaryl polyglycol ether
# To produce an appropriate active ingredient formulation, 1 part by weight of active ingredient is mixed with the specified amounts of solvent and emulsifier, and the concentrate is diluted to the desired concentration with emulsifier-containing water.
# Discs of Chinese cabbage leaves (Brassica pekinensis) are sprayed with an active ingredient formulation of the desired concentration and, after drying, populated with larvae of the mustard beetle (Phaedon cochleariae).
# After 7 days, the efficacy in % is determined 100% means that all beetle larvae have been killed; 0% means that none of the beetle larvae have been killed.
# Boophilus microplus = Boophilus microplus injection test (BOOPMI Inj); format: in vivo; details: application rate of 20 μg/animal, assessed after 7 days by laying of fertile eggs
# Description: Use Examples Boophilus microplus Injection Test (BOOPMI Inj) • Solvent: dimethyl sulphoxide
# To prepare an appropriate active ingredient formulation, 10 mg of active ingredient are mixed with 0.5 ml of solvent and the concentrate is diluted with solvent to the desired concentration.
# 1 μl of the active ingredient solution is injected into the abdomen of 5 engorged adult female cattle ticks (Boophilus microplus). The animals are transferred into dishes and kept in a climate-controlled room.
# The efficacy is assessed after 7 days by laying of fertile eggs. Eggs which are not visibly fertile are stored in a climate-controlled cabinet until the larvae hatch after about 42 days.
# An efficacy of 100% means that none of the ticks has laid any fertile eggs; 0% means that all the eggs are fertile.
# [3] = pH 2.7, HPLC method [a], read-out: logP[a]
# [4] = pH 2.7, HPLC, pH 2.7, read-out: log P[a]
Structure (SMILES),logP[a] [1],logP[b] [2],"chromatographic logP [1, 3]","chromatographic logP [1, 4]",chromatographic logP [2],efficacy (Tetranychus urticae) [%],efficacy (Phaedon cochleariae) [%],pest or weed control at 500 g/ha (Tetranychus urticae) [%],pest or weed control at 500 g/ha (Phaedon cochleariae) [%],efficacy (Boophilus microplus) [%]
Cc1cc(F)c(-n2ncn(-c3ccc(F)cc3)c2=O)cc1[S+]([O-])CC(F)(F)F (racemic) [Example 355],2.45,2.41,–,–,–,90,83,–,–,–
"Cc1cc(F)c(-n2nc(C)n(C)c2=O)cc1SCC(F)(F)F [Example 10, 2-{2-Fluoro-4-methyl-5-[(2,2,2-trifluoroethyl)sulphanyl]phenyl}-4,5-dimethyl-2,4-dihydro-3H-1,2,4-triazol-3-one]",–,–,2.42,2.42,2.38,–,–,90,100,–
Cn1c(C(F)(F)F)nn(-c2cc(SCC(F)(F)F)c(C#N)cc2F)c1=O [Example 38],3.09,3.08,–,–,–,100,–,–,–,100
Cc1ccc(-n2nc(OCC(F)(F)F)n(C3CC3)c2=O)cc1SCC(F)(F)F [Example 92],4.29,4.20,–,–,–,100,–,–,–,100
"COc1nn(-c2ccc(C(F)(F)F)c(SCC(F)(F)F)c2)c(=O)n1C [Example 95, 5-Methoxy-4-methyl-2-{3-[(2,2,2-trifluoroethyl)sulphanyl]-4-(trifluoromethyl)phenyl}-2,4-dihydro-3H-1,2,4-triazol-3-one]",–,–,3.74,3.74,3.64,–,–,–,83,–
Cc1cc(F)c(-n2nc(OC(C)C)n(C3CC3)c2=O)cc1SCC(F)(F)F [Example 101],3.93,3.85,–,–,–,100,–,–,–,100
COc1ccc(-n2nc(OC)n(C3CC3)c2=O)cc1[S+]([O-])CC(F)(F)F (stereo not drawn) [Example 109],2.34,2.30,–,–,–,–,100,–,–,–
Cc1cc(F)c(-n2nc(OC(C)(C)C)n(C)c2=O)cc1SCC(F)(F)F [Example 157],3.98,3.88,–,–,–,100,–,–,–,100
CCn1c([S+]([O-])CC)nn(-c2cc(SCC(F)(F)F)c(C)cc2F)c1=O (stereo not drawn) [Example 253],2.84,2.81,–,–,–,100,–,–,–,100
"Cc1cc(F)c(-n2nnn(C)c2=O)cc1SCC(F)(F)F [Example 302, 1-{2-Fluoro-4-methyl-5-[(2,2,2-trifluoroethyl)sulphanyl]phenyl}-4-methyl-1,4-dihydro-5H-tetrazol-5-one]",–,–,2.89,2.89,2.86,–,–,100,–,100
COC1=CC(=O)N(c2ccc(C(F)(F)F)c(SCC(F)(F)F)c2)C1 [Example 322],3.31,3.25,–,–,–,–,100,–,–,–
COc1nn(-c2cc(SCC(F)(F)F)c(C)cc2F)c(=O)n1CC(F)(F)F [Example 393],3.50,3.47,–,–,–,100,–,–,–,100
"Cc1cc(F)c(-n2nc(Br)n(C(C)C)c2=O)cc1SCC(F)(F)F [Example 439, 5-Bromo-2-{2-fluoro-4-methyl-5-[(2,2,2-trifluoroethyl)sulphanyl]phenyl}-4-isopropyl-2,4-dihydro-3H-1,2,4-triazol-3-one]",–,–,3.83,3.83,3.8,–,–,100,–,100

# The next lines start with results.
logP[a] [1],logP[b] [2],"chromatographic logP [1, 3]","chromatographic logP [1, 4]",chromatographic logP [2],Structure (SMILES),efficacy (Tetranychus urticae) [%],efficacy (Phaedon cochleariae) [%],pest or weed control at 500 g/ha (Tetranychus urticae) [%],pest or weed control at 500 g/ha (Phaedon cochleariae) [%],efficacy (Boophilus microplus) [%]
2.24,2.21,–,–,–,C=CCn1c(OC)nn(-c2cc([S+]([O-])CC(F)(F)F)c(C)cc2F)c1=O (racemic) [Example 183],100,100,–,–,–
–,–,1.57,1.57,1.5,"Cc1cc(F)c(-n2nc(C)n(C)c2=O)cc1[S+]([O-])CC(F)(F)F (stereo not drawn) [Example 11, 2-{2-Fluoro-4-methyl-5-[(2,2,2-trifluoroethyl)sulphinyl]phenyl}-4,5-dimethyl-2,4-dihydro-3H-1,2,4-triazol-3-one]",–,–,100,100,–
1.99,1.96,–,–,–,COCc1nn(-c2cc([S+]([O-])CC(F)(F)F)c(C)cc2F)c(=O)n1C1CC1 (stereo not drawn) [Example 45],100,–,–,–,100
2.93,2.82,–,–,–,Cc1cc(F)c(-n2nc(C(F)(F)F)n(C3CC3)c2=O)cc1[S+]([O-])CC(F)(F)F (stereo not drawn) [Example 60],90,–,–,–,100
1.77,1.77,–,–,–,COc1nn(-c2cc([S+]([O-])CC(F)(F)F)c(C)cc2F)c(=O)n1C (stereo not drawn) [Example 94],–,83,–,–,–
2.21,2.17,–,–,–,COc1nn(-c2cc([S+]([O-])CC(F)(F)F)c(C)cc2C)c(=O)n1C1CC1 (stereo not drawn) [Example 119],90,–,–,–,100
2.19,2.17,–,–,–,Cc1cc(F)c(-n2nc(C(F)(F)F)n(N)c2=O)cc1[S+]([O-])CC(F)(F)F (stereo not drawn) [Example 215],100,–,–,–,100
2.12,2.08,–,–,–,Cc1cc(F)c(-n2nc(S(C)(=O)=O)n(C3CC3)c2=O)cc1[S+]([O-])CC(F)(F)F (stereo not drawn) [Example 228],90,–,–,–,100
1.61,1.58,–,–,–,Cc1cc(F)c(-n2nc([S+](C)[O-])n(C3CC3)c2=O)cc1[S+]([O-])CC(F)(F)F (stereo not drawn) [Example 231],100,–,–,–,100
1.65,1.61,–,–,–,CCn1c([S+](C)[O-])nn(-c2cc([S+]([O-])CC(F)(F)F)c(C)cc2F)c1=O (stereo not drawn) [Example 241],100,–,–,–,100
1.94,1.90,–,–,–,Cc1cc(F)c(-n2nc([S+]([O-])C(C)C)n(C)c2=O)cc1[S+]([O-])CC(F)(F)F (stereo not drawn) [Example 245],100,–,–,–,100
2.45,2.40,–,–,–,CSc1nn(-c2cc([S+]([O-])CC(F)(F)F)c(C)cc2F)c(=O)n1C1CC1 (stereo not drawn) [Example 257],100,–,–,–,100
2.39,2.33,–,–,–,CCn1c(SC)nn(-c2cc([S+]([O-])CC(F)(F)F)c(C)cc2F)c1=O (stereo not drawn) [Example 270],100,–,–,–,100
–,–,1.87,1.87,1.82,"Cc1cc(F)c(-n2nnn(C)c2=O)cc1[S+]([O-])CC(F)(F)F (stereo not drawn) [Example 301, 1-{2-Fluoro-4-methyl-5-[(2,2,2-trifluoroethyl)sulphinyl]phenyl}-4-methyl-1,4-dihydro-5H-tetrazol-5-one]",–,–,100,–,100
–,–,1.59,1.59,0.37,"Cc1cc(F)c(-n2nn[nH]c2=O)cc1[S+]([O-])CC(F)(F)F (stereo not drawn) [Example 303, 1-{2-Fluoro-4-methyl-5-[(2,2,2-trifluoroethyl)sulphinyl]phenyl}-1,4-dihydro-5H-tetrazol-5-one]",–,–,–,100,–
2.82,2.78,–,–,–,CCn1c(OCC(F)(F)F)nn(-c2cc([S+]([O-])CC(F)(F)F)c(C)cc2F)c1=O (stereo not drawn) [Example 406],90,–,–,–,100
–,–,2.68,2.68,2.62,"Cc1cc(F)c(-n2nc(Br)n(C(C)C)c2=O)cc1[S+]([O-])CC(F)(F)F (stereo not drawn) [Example 442, 5-Bromo-2-{2-fluoro-4-methyl-5-[(2,2,2-trifluoroethyl)sulphinyl]phenyl}-4-isopropyl-2,4-dihydro-3H-1,2,4-triazol-3-one]",–,–,100,–,100
